Measured values published in PMC8815882, “Screening the pandemic response box identified benzimidazole carbamates, Olorofim and ravuconazole as promising drug candidates for the treatment of eumycetoma” (PLoS Neglected Tropical Diseases, 2022).
Like-named read-outs stand apart in the source and are kept apart here.

System: M. mycetomatis genome strain MM55
Assay: CLSI M38-A2 based in vitro susceptibility screening (XTT or resazurin), growth at fixed concentration
Format: cell-based, Madurella mycetomatis
Conditions: Madurella mycetomatis; for Percent fungal survival at 100 µM: replicate 2, M. mycetomatis MM55, read-out: Percentage survival at 100um, 100 uM A (second replicate column)
[1] = 25 uM, replicate A, read-out: Percentage survival at 25um, 25 um A
[2] = 25 uM, replicate B, read-out: Percentage survival at 25um, 25 uM B
[3] = 25 uM, replicate C, read-out: Percentage survival at 25um, 25 uM C
[4] = mean of replicates, read-out: Percentage survival at 100um, 100 uM mean
[5] = replicate 1, read-out: Percentage survival at 100um, 100 uM A
[6] = replicate 2, read-out: Percentage survival at 100um, 100 uM A
[7] = replicate 3, read-out: Percentage survival at 100um, 100 uM A
[8] = 25 uM, mean, read-out: Percentage survival at 25um, 25 uM mean
[9] = mean, read-out: Percentage survival at 100um, 100 uM mean
[10] = replicate (first column), read-out: Percentage survival at 100um, 100 uM A
[11] = replicate (second column), read-out: Percentage survival at 100um, 100 uM A
[12] = replicate (third column), read-out: Percentage survival at 100um, 100 uM A
[13] = 25 uM, mean of three, M. mycetomatis MM55, read-out: Percentage survival at 25um, 25 uM mean
[14] = 25 uM, replicate A, M. mycetomatis MM55, read-out: Percentage survival at 25um, 25 um A
[15] = 25 uM, replicate B, M. mycetomatis MM55, read-out: Percentage survival at 25um, 25 uM B
[16] = 25 uM, replicate C, M. mycetomatis MM55, read-out: Percentage survival at 25um, 25 uM C
[17] = mean of three, M. mycetomatis MM55, read-out: Percentage survival at 100um, 100 uM mean
[18] = replicate 1, M. mycetomatis MM55, read-out: Percentage survival at 100um, 100 uM A (first replicate column)
[19] = replicate 3, M. mycetomatis MM55, read-out: Percentage survival at 100um, 100 uM A (third replicate column)

## O=C(Nc1ncc(Cc2cccc3ccccc23)s1)C1CCCCC1 [MMV1593532]
25 uM, mean of replicates, read-out: Percentage survival at 25um, 25 uM mean
  activity at 25 µM: 92.1%
[1]
  activity at 25 µM: 93.7%
[2]
  activity at 25 µM: 94.5%
[3]
  activity at 25 µM: 88%
[4]
  activity at 100 µM: 93.9%
[5]
  activity at 100 µM: 107%
[6]
  activity at 100 µM: 89%
[7]
  activity at 100 µM: 85.1%

## C[C@H]1[C@@H](c2cccc(C(F)(F)F)c2)OC(=O)N1C(=O)NCc1cncc2ccccc12 [MMV1593533]
[8]
  activity at 25 µM: 50%
[1]
  activity at 25 µM: 54.1%
[2]
  activity at 25 µM: 42.5%
[3]
  activity at 25 µM: 53.3%
[9]
  activity at 100 µM: 36.1%
[10]
  activity at 100 µM: 6.17%
[11]
  activity at 100 µM: 44.6%
[12]
  activity at 100 µM: 57.6%

## CCNC(=O)Nc1cc(-c2ccccc2)c(-c2cncc(C(=O)O)c2)cn1 [MMV1593534]
[8]
  activity at 25 µM: 85.6%
[1]
  activity at 25 µM: 94.2%
[2]
  activity at 25 µM: 90.1%
[3]
  activity at 25 µM: 72.5%
[9]
  activity at 100 µM: 53.4%
[10]
  activity at 100 µM: 4.59%
[11]
  activity at 100 µM: 76.9%
[12]
  activity at 100 µM: 78.8%

## CCCCCCC1c2ccc(O)cc2Oc2cc(O)ccc21 [MMV1593535]
[8]
  activity at 25 µM: 72.3%
[1]
  activity at 25 µM: 72.8%
[2]
  activity at 25 µM: 89.7%
[3]
  activity at 25 µM: 54.6%
[9]
  activity at 100 µM: 21.5%
[10]
  activity at 100 µM: 10.9%
[11]
  activity at 100 µM: 14.4%
[12]
  activity at 100 µM: 39.1%

## Fc1ccc(-c2nc(-c3c[nH]c4ccc(Br)cc34)[nH]c2-c2ccc(F)cc2)cc1 [MMV1593537]
[13]
  activity at 25 µM: 61.4%
[14]
  activity at 25 µM: 38%
[15]
  activity at 25 µM: 20.2%
[16]
  activity at 25 µM: 126%
[17]
  activity at 100 µM: 3.84%
[18]
  activity at 100 µM: 4.18%
  Percent fungal survival at 100 µM: 1.82%
[19]
  activity at 100 µM: 5.52%

## NC1(C(=O)O)CCP(=O)(O)CC1 (centres unmarked) [MMV1593538]
[1]
  activity at 25 µM: 56.1%
[4]
  activity at 100 µM: 65.8%
[5]
  activity at 100 µM: 72.6%
[6]
  activity at 100 µM: 66.4%
[7]
  activity at 100 µM: 58.5%
read-out: Percentage survival at 25um, 25 uM B
  activity at 25 µM: 68.9%
read-out: Percentage survival at 25um, 25 uM C
  activity at 25 µM: 67%
read-out: Percentage survival at 25um, 25 uM mean
  activity at 25 µM: 64%

## COc1ccc2cc3[n+](cc2c1OCCN(CCn1cncn1)Cc1ccc(F)cc1F)CCc1cc2c(cc1-3)OCO2 [MMV1593540]
[13]
  activity at 25 µM: 87.6%
[14]
  activity at 25 µM: 96.5%
[15]
  activity at 25 µM: 90.9%
[16]
  activity at 25 µM: 75.5%
[17]
  activity at 100 µM: 84.2%
[18]
  activity at 100 µM: 80.5%
  Percent fungal survival at 100 µM: 83.8%
[19]
  activity at 100 µM: 88.4%

## Nc1nc(Nc2ccc3nc(-c4ccc(F)cc4)cc(N)c3c2)cc(-c2ccccc2)n1 [MMV1593541]
[13]
  activity at 25 µM: 65.8%
[14]
  activity at 25 µM: 82.5%
[15]
  activity at 25 µM: 80.3%
[16]
  activity at 25 µM: 34.5%
[17]
  activity at 100 µM: 2.33%
[18]
  activity at 100 µM: 5.55%
  Percent fungal survival at 100 µM: 5.6%
[19]
  activity at 100 µM: -4.16%

## OCCCCn1cnc2c(O)nc(NCc3ccc(Cl)c(Cl)c3)nc21 [MMV1593542]
[13]
  activity at 25 µM: 73.1%
[14]
  activity at 25 µM: 73.4%
[15]
  activity at 25 µM: 73.3%
[16]
  activity at 25 µM: 72.6%
[17]
  activity at 100 µM: 74.4%
[18]
  activity at 100 µM: 82.6%
  Percent fungal survival at 100 µM: 70.6%
[19]
  activity at 100 µM: 70.1%

## COc1cc(C(C(=O)NC2CCCCC2)N(C(=O)Cc2c[nH]c3ccccc23)c2ccc(C(C)C)cc2)cc(OC)c1OC (centres unmarked) [MMV1593544]
25 uM, mean of replicates, MM55, read-out: Percentage survival at 25um, 25 uM mean
  activity at 25 µM: 98.2%
25 uM, replicate A, MM55, read-out: Percentage survival at 25um, 25 um A
  activity at 25 µM: 107%
25 uM, replicate B, MM55, read-out: Percentage survival at 25um, 25 uM B
  activity at 25 µM: 106%
25 uM, replicate C, MM55, read-out: Percentage survival at 25um, 25 uM C
  activity at 25 µM: 81.3%
Mean of replicates, MM55, read-out: Percentage survival at 100um, 100 uM mean
  activity at 100 µM: 88.5%
Replicate 1, MM55, read-out: Percentage survival at 100um, 100 uM A
  activity at 100 µM: 98%
Replicate 2, MM55, read-out: Percentage survival at 100um, 100 uM A
  activity at 100 µM: 88.7%
Replicate 3, MM55, read-out: Percentage survival at 100um, 100 uM A
  activity at 100 µM: 78.7%
